Experimental data taken from patent US20180021360A1, “Combination Therapy Regimen For Treatment Of Selected HCV Genotypes” (JANSSEN PHARMACEUTICALS, INC., priority 2016, published 2018).

How the values were obtained:
[1] = Phase 2a open-label combination study, pharmacokinetics; type: in vivo, human
Description: A randomized, Phase 2a, open-label study was carried out to evaluate the safety, pharmacokinetics and efficacy of the combination of Compound (III), Odalasvir and Simeprevir in Genotype 1 treatment-naïve subjects with chronic hepatitis C. Other treatment-naïve subjects included Genotype 2, 3, 4, 5 and 6.
The aim of the study was to determine the efficacy, pharmacokinetics (PK), and safety of Compound (II)+Odalasvir±SMV in HCV-infected subjects.
This was an open-label study evaluating various dosing regimens of Compound (III)+Odalasvir±SMV for 6-8 weeks in treatment-nave HCV-infected subjects with varying clinical characteristics (e.g., GT 1 or 3, presence/absence of compensated Child Pugh A cirrhosis). Efficacy, PK and safety evaluations were conducted during and through 24 weeks post dosing. Up to 15 cohorts were enrolled; data was generated from cohorts that have completed dosing.

[2] = test system: HCV genotype 3; assay: activity against genotype 3 in vitro; set-up: species or system hepatitis C virus
[3] = target: T1, OATP1B1 (Homo sapiens, UniProt Q9Y6L6); conditions: cited from earlier work
T1 sequence (Q9Y6L6 1-691): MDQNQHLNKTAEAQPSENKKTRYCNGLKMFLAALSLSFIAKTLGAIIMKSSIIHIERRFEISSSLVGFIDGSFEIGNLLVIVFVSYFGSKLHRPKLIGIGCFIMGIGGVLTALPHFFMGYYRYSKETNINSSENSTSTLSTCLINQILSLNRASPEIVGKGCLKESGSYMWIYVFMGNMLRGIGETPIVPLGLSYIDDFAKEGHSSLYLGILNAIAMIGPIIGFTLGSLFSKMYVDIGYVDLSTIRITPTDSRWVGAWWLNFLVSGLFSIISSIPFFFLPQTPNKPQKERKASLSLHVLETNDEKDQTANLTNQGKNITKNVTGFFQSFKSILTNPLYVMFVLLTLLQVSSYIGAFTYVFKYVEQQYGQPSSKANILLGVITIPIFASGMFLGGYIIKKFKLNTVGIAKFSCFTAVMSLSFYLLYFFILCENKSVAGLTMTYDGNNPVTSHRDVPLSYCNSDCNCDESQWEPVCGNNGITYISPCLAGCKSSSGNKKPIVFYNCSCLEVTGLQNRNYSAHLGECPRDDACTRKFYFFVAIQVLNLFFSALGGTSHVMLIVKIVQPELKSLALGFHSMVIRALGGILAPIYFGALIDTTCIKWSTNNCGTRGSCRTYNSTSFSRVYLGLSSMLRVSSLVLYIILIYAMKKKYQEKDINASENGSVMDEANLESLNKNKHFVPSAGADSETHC

Compound: COC(=O)N[C@H](C(=O)N1[C@H](c2nc3cc(-c4cc5ccc4CCc4ccc(c(-c6ccc7[nH]c([C@@H]8C[C@@H]9CCCC[C@@H]9N8C(=O)[C@@H](NC(=O)OC)C(C)C)nc7c6)c4)CC5)ccc3[nH]2)C[C@@H]2CCCC[C@@H]21)C(C)C [Odalasvir, methyl [(2,)-1-[(2S,3aS,7aS)-2-[6-[11-[2-[(2S,3aS,7aS)-1-[(2S)-2-[(methoxycarbonyl)amino]-3-methylbutanoyl]octahydro-1H-indol-2-yl]-1H-benzimidazol-6-yl]tricyclo[8.2.2.2^4,7]hexadeca-1(12),4,6,10,13,15-hexaen-5-yl]-1H-benzimidazol-2-yl]octahydro-1H-indol-1-yl]-3-methyl-1-oxobutan-2-yl]carbamate]
- observed exposures in Cohort 1 / group (i) ([1]; Compound (III) 400 mg, ODV 50 mg QD, SMV 100 mg QD): higher than anticipated
- decrease of ODV exposure on reducing ODV dosing from QD to QOD ([1]; in vivo): proportionally
- activity against genotype 3 in vitro [2]: effective
- in vitro inhibition of OATP1B1 [3]: no inhibition
